In patent publication US20180042931A1 (Bayer Pharma Aktiengesellschaft, priority 2015, published 2018):

Experiments:
[1] = tested on: constitutive active colorectal cancer cell (CRC) Wnt pathway; experiment: Cellular reporter assay, HCT116 cells stably transfected with Super TopFlash vector (HCT116-TOP), luciferase readout; type: cell-based; conditions: Homo sapiens, HCT-116, 36 hours incubation, luciferase expression, average or median values
Experimental: In order to discover and characterize small molecules which inhibit the constitutive active colorectal cancer cell (CRC) Wnt pathway, a cellular reporter assay was employed. The corresponding assay cell was generated by transfection of the colorectal cancer cell line HCT116 (ATCC, #CCL-247) with the Super TopFlash vector (Morin, Science 275, 1997, 1787-1790; Molenaar et al., Cell 86 (3), 1996, 391-399). The HCT116 cell line is cultivated at 37° C. and 5% CO2 in DMEM/F-12 (Life Technologies, #11320-074), supplemented with 2 mM glutamine, 20 mM HEPES, 1.4 mM pyruvate, 0.15% Na-bicarbonate and 10% foetal bovine serum (GIBCO, #10270), this cancer cell line is pathophysiological relevant since it carries a deletion of position S45 in the β-catenin gene, leading to constitutive active Wnt signaling. Stable transfectants were generated by cotransfection with pcDNA3 and selection of stable transfected cells with 1 mg/mL G418.
(§1) In preparation of the assay, the two cell lines were plated 24 hours before at 10000 cells per well of a 384 micro titre plate (MTP) in 30 μL growth medium. Selective inhibitory activity for small molecules on the mutated Wnt pathway was determined after parallel incubation of both (TOP and FOP) HCT116 reporter cell lines with a compound dilution series from 50 μM to 15 nM in steps of 3.16-fold dilutions in CAFTY buffer (130 mM NaCl, 5 mM KCl, 20 mM HEPES, 1 mM MgCl2, 5 mM NaHCO3, pH 7.4) containing 2 mM Ca^2+ and 0.01% BSA. The compounds were thereby serially prediluted in 100% DMSO and thereafter in addition 50 fold into the CAFTY compound dilution buffer (described above). From this dilution 10 μL were added to the cells in 30 μL growth medium and incubated for 36 hours at 37° C. and 5% CO2. Thereafter luciferase assay buffer (1:1 mixture of luciferase substrate buffer (20 mM Tricine, 2.67 mM MgSO4, 0.1 mM EDTA, 4 mM DTT, 270 μM Coenzyme A, 470 μM Luciferin, 530 μM ATP, ph adjusted to pH 7.8 with a sufficient volume of 5M NaOH) and Triton buffer (30 mL Triton X-100, 115 mL glycerol, 308 mg Dithiothreitol, 4.45 g Na2HPO4.2H2O, 3.03 g TRIS HCl, ad 1I H2O, pH 7.8) was added as equal volume to the compound solution on the cells to determine luciferase expression as a measure of Wnt signaling activity in a luminometer.

[2] = tested on: FOP control vector (randomized, non-functional sequence instead of functional TCF elements) in HCT116 cells; experiment: Control reporter assay, HCT116 cells stably transfected with FOP control vector (HCT116-FOP), luciferase readout; type: cell-based; conditions: Homo sapiens, HCT-116, 36 hours incubation, luciferase expression, dilution series up to 50 μM
Experimental: In a parallel approach, HCT116 cells were cotransfected with the FOP control vector and pcDNA3. The FOP vector is identical to the TOP construct, but it contains instead of functional TCF elements a randomized, non-functional sequence. For this transfection a stable transfected cell line was generated as well.
as §1

SMILES | IC50 [1] [nM] | IC50 [2] [µM]
Cc1ccc(C(=O)Nc2ccc(-c3cccnc3)cc2)cc1NC(=O)C1(N2CCOCC2)CC1 [Example 24, 4-methyl-3-({[1-(morpholin-4-yl)cyclopropyl]carbonyl}amino)-N-[4-(pyridin-3-yl)phenyl]benzamide] | 34.1 | ≥ 50
O=C(CN1CCOCC1)Nc1cc(C(=O)Nc2ccc(-c3cccnc3)cc2)ccc1OC(F)F [Example 27, 4-(difluoromethoxy)-3-[(morpholin-4-ylacetyl)amino]-N-[4-(pyridin-3-yl)phenyl]benzamide] | 37 | ≥ 50
Nc1ncc(-c2ccc(NC(=O)c3ccc(OC(F)F)c(NC(=O)CN4CCOCC4)c3)cc2)cn1 [Example 28, N-[4-(2-aminopyrimidin-5-yl)phenyl]-4-(difluoromethoxy)-3-[(morpholin-4-ylacetyl)amino]benzamide] | 226 | 39
Nc1ccc(-c2ccc(NC(=O)c3ccc(OC(F)F)c(NC(=O)CN4CCOCC4)c3)cc2)cn1 [Example 29, N-[4-(6-aminopyridin-3-yl)phenyl]-4-(difluoromethoxy)-3-[(morpholin-4-ylacetyl)amino]benzamide] | 48.8 | ≥ 50
CN1CCN(CC(=O)Nc2cc(C(=O)Nc3ccc(-c4cccnc4)cc3)ccc2OC(F)(F)F)CC1 [Example 30, 3-{[(4-methylpiperazin-1-yl)acetyl]amino}-N-[4-(pyridin-3-yl)phenyl]-4-(trifluoromethoxy)benzamide] | 31.3 | 38.5
CN1CCN(CC(=O)Nc2cc(C(=O)Nc3ccc(-c4cccnc4F)cc3)ccc2OC(F)(F)F)CC1 [Example 31, N-[4-(2-fluoropyridin-3-yl)phenyl]-3-{[(4-methylpiperazin-1-yl)acetyl]amino}-4-(trifluoromethoxy)benzamide] | 31.8 | 38.5
CN1CCN(CC(=O)Nc2cc(C(=O)Nc3ccc(-c4cncnc4)cc3)ccc2OC(F)(F)F)CC1 [Example 32, 3-{[(4-methylpiperazin-1-yl)acetyl]amino}-N-[4-(pyrimidin-5-yl)phenyl]-4-(trifluoromethoxy)benzamide] | 47.5 | 40
CN1CCN(CC(=O)Nc2cc(C(=O)Nc3ccc(-c4cnc(N)nc4)cc3)ccc2OC(F)(F)F)CC1 [Example 33] | 55.5 | ≥ 50
COc1ccc(NC(=O)c2ccc(-c3cnn(C)c3)cc2)cc1NC(=O)CN1CCOCC1 [Example 36, N-{4-methoxy-3-[(morpholin-4-ylacetyl)amino]phenyl}-4-(1-methyl-1H-pyrazol-4-yl)benzamide] | 15600 | ≥ 50

These reach a lower IC50 [1]. Values come first.

IC50 [1] [nM] | IC50 [2] [µM] | SMILES
25.3 | 28 | CN1CCN(CC(=O)Nc2cc(C(=O)Nc3ccc(-c4ccc(N)nc4)cc3)ccc2OC(F)(F)F)CC1 [Example 34, N-[4-(6-aminopyridin-3-yl)phenyl]-3-{[(4-methylpiperazin-1-yl)acetyl]amino}-4-(trifluoromethoxy)-benzamide]
23 | ≥ 50 | O=C(CN1CCOCC1)Nc1cc(C(=O)Nc2ccc(-c3cccnc3)cc2)ccc1OC1CC1 [Example 35, 4-(cyclopropyloxy)-3-[(morpholin-4-ylacetyl)amino]-N-[4-(pyridin-3-yl)phenyl]benzamide]
20.7 | ≥ 50 | Cc1ccc(C(=O)Nc2ccc(-c3cccnc3F)cc2)cc1NC(=O)C1(N2CCOCC2)CC1 [Example 25, N-[4-(2-fluoropyridin-3-yl)phenyl]-4-methyl-3-({[1-(morpholin-4-yl)cyclopropyl]carbonyl}-amino)benzamide]
14 | ≥ 50 | O=C(Nc1ccc(-c2cccnc2F)cc1)c1ccc(F)c(NC(=O)C2(N3CCOCC3)CC2)c1 [Example 26, 4-fluoro-N-[4-(2-fluoropyridin-3-yl)phenyl]-3-({[1-(morpholin-4-yl)cyclopropyl]carbonyl}-amino)benzamide]
